We go through 87 compounds from PubChem BioAssay AID2305 (GlaxoSmithKline (GSK), 2010).

The experiment relates to P. falciparum 3D7 growth, pLDH absorbance. Put plainly: P. falciparum 3D7 growth inhibition, dose response, strain 3D7 (AID 2305).

`CCNc1cc(C(=O)N[C@@H](Cc2ccccc2)[C@H](O)CNC2CCC(C)(C)C2)cc(N2CCCCS2(=O)=O)c1` (some centres not stated): the IC50 (in general, the midpoint of a concentration-inhibition curve) came out at 0.14 µM. In the case of `O=C(NC1CCN(Cc2ccccc2)CC1)c1ccc(-c2nc3cc(Cl)c(F)cc3[nH]2)cc1` it was 0.25 µM; in that of `COc1cccc(C(=O)Nc2sc3c(c2C(N)=O)CCCC3)c1OC`, 0.93 µM; in that of `O=C(Nc1ccc(F)c(Cl)c1)c1cc([N+](=O)[O-])cc2cn[nH]c12`, 0.32 µM. In the case of `Cc1ccc(CNC(=O)[C@H](Cc2ccccc2)Nc2cc(C)nc(Nc3ccccc3)n2)cc1` it was 0.85 µM; in that of `COc1ccc2c(c1)Nc1ccc(Cl)cc1C2N` (configuration not stated), 0.3 µM; in that of `CN1CCN(c2ccnc3ccc(NC(=O)Nc4cccc(C#N)c4)cc23)CC1`, 0.8 µM. The same measure for `Cc1cccc(C(=O)Nc2ccnc(N(C)C3CCN(Cc4cccc(O)c4)CC3)c2)c1`: 0.94 µM; for `S=C(NCCc1ccccc1)Nc1ccc2ncsc2c1`: 1.4 µM; for `O=C(NC1CC1)c1ccc(N2CCCC(COc3ccccc3F)C2)nc1` (configuration not stated): 0.9 µM. In turn, `CCCCCCN1CCC(CNCc2cccc(Cl)c2)CC1` had a half-inhibitory concentration (IC50) of 1.22 µM. In the case of `O=C(Nc1ccc(S(=O)(=O)N2CCCC2)cc1)c1cc(-c2cccnc2)nc2ccc(Cl)cc12` it was 0.3 µM; in that of `Cc1cccc2[nH]c(-c3ccc(-c4cccc(NC(=O)Cc5cnc[nH]5)c4)cc3)nc12`, 0.9 µM. For the compound `OCC1CCN(Cc2ccc(-c3ccc(-c4nc5ccc(C(F)(F)F)cc5[nH]4)cc3)cc2)CC1`, the IC50 was 0.7 µM. In the case of `Cc1cc(=O)c(C2CCC(c3ccc(Cl)cc3)CC2)c(C)[nH]1` (configuration not stated) it was 0.74 µM; in that of `CC(C)NCC(O)Cn1c2ccc(Br)cc2c2cc(Br)ccc21` (configuration not stated), 0.45 µM; in that of `Cc1ccccc1-c1nc2c(CN3CCC(O)(c4ccccc4)CC3)c(O)ccc2[nH]1`, 0.87 µM.

`FC(F)(F)c1ccc2nc(-c3ccc(-c4ccc(CNCCc5ccncc5)cc4)cc3)[nH]c2c1` registered an IC50 of 0.13 µM. The same measure for `CCc1cc([C@H]2O[C@@H](n3cnc4c(NCC(c5ccccc5)c5ccccc5)nc(NCCNc5ccccn5)nc43)[C@H](O)[C@@H]2O)on1`: 0.89 µM; for `O=C(/C=C/c1ccc(C(F)(F)F)cc1)NCCCCCN1CCCN(C(=O)Nc2ccc(Cl)c(C(F)(F)F)c2)CC1`: 0.2 µM. `CCOC(=O)c1ccc(NC(=O)N[C@@H](Cc2ccccc2)C(=O)NC2CCN(Cc3ccc(O)cc3)C2)cc1` (some centres not stated) yielded an IC50 of 0.63 µM. The same measure for `NCCc1cccc(-c2cnc3[nH]cc(-c4ccc(C(=O)O)cc4)c3c2)c1`: 0.4 µM.

`Cc1cccc2[nH]c(-c3cccc(-c4cccc(NC(=O)c5cnn6cccnc56)c4)c3)nc12` returned an IC50 of 0.67 µM. With `Cc1sc2ccc(Cl)cc2c1S(=O)(=O)Nc1ccc2nccc(N3C[C@@H](C)N[C@@H](C)C3)c2c1`, the IC50 came out at 0.11 µM.

Compound `CCn1c(-c2cc(C)on2)nc2cnc(Oc3ccc(C(=O)N4CC(=O)N(C)C4C(C)(C)C)cc3)cc21` (configuration not stated) had an IC50 of 1.82 µM.

Compound `O=C(NCC1CCC(C(=O)NC2CCCc3ccccc32)CC1)c1ccc(O)c(-c2cccc([N+](=O)[O-])c2)c1` (configuration not stated) registered an IC50 of 0.94 µM. The same measure for `COc1ccc(-c2csc3ncnc(Cl)c23)cc1`: 0.78 µM.

With `COc1cccc(CCc2nc3c(N4CCC(Cc5ccccc5)CC4)cccc3n2CC2CNCCO2)c1` (configuration not stated), the IC50 was 0.8 µM.

`Cc1cc(OCCCN2CCN(CCN3CCOCC3)CC2)ccc1NC(=O)COc1ccc(Cl)cc1C(=O)c1cc(Cl)cc(C#N)c1` returned an IC50 of 0.7 µM. As to `Cc1[nH]cc(Br)c(=O)c1-c1ccc(Oc2ccccc2)cc1`, the IC50 came out at 0.68 µM. `COc1cc2nccc(Nc3cccc(Oc4ccccc4)c3)c2cc1OC` came in with an IC50 of 0.64 µM. In the case of `COc1ccc(CCNCc2ccc3nc(N)c(C)cc3c2)cc1` it was 0.99 µM; in that of `O=C(CSc1nccn1Cc1ccco1)Nc1cc(C(F)(F)F)ccc1Cl`, 0.82 µM; in that of `Nc1c2c(nc3ccc(Oc4ccc(Cl)cc4)cc13)CCCC2`, 0.97 µM.

Turning to `CO/C(=C\C=C\c1cc2cc(Cl)c(Cl)cc2[nH]1)C(=O)NCCCN1CCN(c2cccc(CCO)c2)CC1`, the IC50 was 0.72 µM. The same measure for `CC[C@H](C)CNC(=O)c1cncc(-c2cccc(CNC3Cc4ccccc4C3)c2)c1`: 0.59 µM; for `CCN(CC)CCCN(C(=O)c1cc2c(C)nn(-c3ccccc3)c2s1)c1nc(-c2ccc(OC)cc2)cs1`: 1.15 µM; for `Cc1ccccc1C1CCN(C2CCC(NC(=O)/C=C/c3cc(C(F)(F)F)ccc3F)CC2)CC1` (configuration not stated): 0.84 µM. The same measure for `c1cc(Cc2ccc(Nc3c4ccccc4nc4ccccc34)cc2)cc(Nc2c3ccccc3nc3ccccc23)c1`: 0.14 µM. In the case of `CCc1cn2c3c(cc(C(=O)N[C@@H](Cc4ccccc4)[C@H](O)CNC4CCCCC4)cc13)N(CC)S(=O)(=O)CC2` it was 0.03 µM; in that of `O=c1cc(NCCCNCc2cccc(SC(F)(F)F)c2)[nH]c2ccccc12`, 0.72 µM. `FC(F)(F)c1ccc(Nc2nnnc3ccccc23)cc1` showed an IC50 of 0.69 µM. The same measure for `COc1cc2nc(N3CCN(C(=O)c4ccc(N(C(=O)OC(C)(C)C)C(=O)OC(C)(C)C)cc4)CC3)nc(N)c2cc1OC`: 1 µM. In turn, `O=C(/C=C/c1ccc(O)cc1)NC1CCC(CN2CCC(c3c[nH]c4ccccc34)CC2)CC1` (configuration not stated) had an IC50 of 0.74 µM.

`Cc1cc(NN=Cc2cccc([N+](=O)[O-])c2)c2cc(F)ccc2n1` had an IC50 of 0.59 µM. The same measure for `CCCCN1C(=O)C(c2ccccc2)(c2ccccc2)N=C1N`: 1.03 µM; for `O=C(Nc1ccc(Cl)c(Cl)c1)Nc1ccc(F)c([N+](=O)[O-])c1`: 0.7 µM; for `COc1cc(Cc2cnc(N)nc2N)cc(OCCCCCCN)c1OC`: 0.19 µM. The same measure for `O=C(Nc1ccc(Cl)c(Cl)c1)Nc1ccccc1N1CCNCC1`: 0.71 µM; for `CN(C)CCN(Cc1ccccc1-c1ccc(CNCCc2ccccc2)cc1)C(=O)c1ccccc1`: 1.7 µM; for `COc1ccc(-n2ncc(C(=O)N3CCC4(C3)C(=O)N(c3ccccc3)c3ccccc34)c2C)cc1` (configuration not stated): 0.93 µM.

For the compound `Cc1noc(C)c1-c1ccc(C(=C2CCCCCC2)c2ccc(O)cc2)cc1`, the IC50 came out at 0.19 µM. Compound `CCc1c(C)nc(-n2nc(C)cc2NC(=O)c2ccc(OC)cc2OC)[nH]c1=O` had an IC50 of 0.83 µM. The same measure for `CCOc1ccc2nc(C)cc(NN=Cc3ccc(Cl)cc3)c2c1`: 0.76 µM; for `COc1ccc2ncc(F)c(CCN3CCC(NCc4cc(C)c5c(c4)OCCO5)CC3)c2n1`: 0.49 µM. Take `Cc1c(C)n(C2CCCCC2)c2ncnc(OC3CCN(CC(=O)NC4CC4)CC3)c12`: the IC50 is 1.24 µM. The compound `COc1ccc2nccc([C@@H](O)CNCCCN(C)CCOc3cc(F)cc(F)c3)c2c1` displayed an IC50 of 0.79 µM. The same measure for `O=C(Nc1ccc2c(c1)CCC2)c1ccc(N2CCN(c3ccncc3)CC2)cn1`: 0.86 µM. The same measure for `COc1ccc2nccc([C@@H](O)CN3CCC(NCc4cc5ccc(C#N)cc5[nH]4)CC3)c2c1`: 0.1 µM. The same measure for `N=c1sc2ccccc2n1CC(O)c1ccc(Cl)c(Cl)c1` (configuration not stated): 0.8 µM; for `COc1ccc2nc(-c3ccccc3)cc(NCCCNc3cc(-c4ccccc4)nc4ccc(OC)cc34)c2c1`: 0.12 µM; for `COc1ccc(S(=O)(=O)N(c2cc(Br)cc3c2OCC3)S(=O)(=O)c2ccc(OC)c(N3CCN(C)CC3)c2)cc1N1CCN(C)CC1`: 1.17 µM.

In the case of `COc1cc(NC(=O)c2sc(-c3ccc(Cl)cc3)cc2NC(=O)c2cccc(N(C)C)c2)ccc1OCCN1CCCC1`, the IC50 came to 0.71 µM. Turning to `CCNC(=O)c1ccc(-n2nc(C)cc2-c2ccccc2)cc1`, the IC50 worked out at 1.12 µM. The same measure for `Cc1ccccc1C1CCN(c2ccc(C(=O)NC3CC3)cn2)CC1`: 0.85 µM. On to `COc1cc(C(=O)NCCCN2CCN(c3cccc(Cl)c3)CC2)ccc1-c1cc2cc(Cl)c(Cl)cc2[nH]1`, for which the concentration for half-maximal inhibition (IC50) turned out to be 0.47 µM. Turning to `COc1cccc2c(NCCNc3ccnc4c(OC)cccc34)ccnc12`, the IC50 is 0.27 µM. In the case of `Cc1ccc(Cn2nc(N3CCNCC3)ccc2=O)cc1NC(=O)Nc1ccc(-c2ccccc2)cc1` it was 0.84 µM.

In the case of `CNC(=O)c1cnc(Nc2ccc(OCC(O)CN(C)C)cc2)nc1Nc1cccc(OC(C)C)c1` (configuration not stated), the IC50 came out at 0.14 µM.

With `CS(=O)(=O)CCNc1cc(N2CCc3ncnc(Nc4ccc(OCc5cccc(F)c5)c(Cl)c4)c3C2)ncn1`, the IC50 worked out at 0.87 µM. `COc1ccc(CCNCCCCCCNCCc2ccc(Cl)c3ccccc23)cc1OC`: the IC50 came to 0.58 µM. In the case of `O=C(Nc1ccc(Cl)c(C(F)(F)F)c1)c1ccc(Cl)c([N+](=O)[O-])c1` it was 1.12 µM. The compound `CCOc1cc(NC(=O)Nc2ccnc3ccccc23)cc(OC)c1` had an IC50 of 0.87 µM. The compound `CCOc1ccc(S(=O)(=O)N(C)c2ccc(OCC(=O)Nc3nccs3)cc2)cc1` had an IC50 of 0.96 µM.

Compound `CC(C)CC1(C(=O)OC(C)(C)C)CC(C(=O)OC(C)(C)C)C(c2cccs2)N1C(=O)c1ccc(C(C)(C)C)cc1` (configuration not stated) returned an IC50 of 0.14 µM. The compound `CN(C)C(=NCCCCCCN=C(/N=C(/N)Nc1ccc(Cl)cc1)N(C)C)/N=C(/N)Nc1ccc(Cl)cc1` returned an IC50 of 0.53 µM.

With `N#Cc1cccc(C(=O)Nc2ccc(-c3nc4ccccc4[nH]3)cc2)c1`, the IC50 came out at 0.54 µM. The same measure for `Cc1cc(C(=O)Nc2ccc(-c3ccccc3)cc2)no1`: 0.69 µM.

Compound `CC(C)(C)CNc1noc(-c2sccc2Br)n1` displayed an IC50 of 1.12 µM. The same measure for `CCCc1ccc(-c2csc(NC(=O)c3ccc([N+](=O)[O-])o3)n2)cc1`: 1.21 µM; for `O=C(Nc1ccc(N2CCNCC2)nc1)c1oc(-c2ccccc2)nc1C(F)(F)F`: 0.98 µM; for `CCCC(=O)Nc1ccc(OCCN(Cc2ccccc2OC(F)(F)F)c2ccc(C(F)(F)F)c(C#N)c2)cc1`: 0.79 µM. The same measure for `COC(=O)c1ccc2nc(-c3ccc(/C=C/C(=O)NC4CCN(Cc5ccccc5)CC4)cc3)[nH]c2c1`: 0.71 µM; for `Cc1noc(-c2ccccc2)c1NC(=O)NC1CCN(CCCCCNC(=O)/C=C/c2ccc(Cl)c(Cl)c2)CC1`: 0.99 µM; for `CCOc1cc(C(=O)NCc2ccc(Cl)c(Cl)c2)ccc1-c1nc2ccc(Cl)cc2[nH]1`: 0.8 µM. For `CN(C)CCN(C)Cc1ccc(-c2ccc(NS(=O)(=O)c3cccc4cccnc34)cc2)cc1`, the 50% inhibitory concentration (IC50) came out at 0.86 µM.

In turn, `COc1cc2cc(C(=O)Nc3ccccc3)c(N)nc2cc1OC` came in with an IC50 of 1.13 µM.
